# PubChem BioAssay AID2060343 (Molecular Pharmacology Branch, DTP, NCI, 2025)
# pIC50: −log10 of the molar value.
# System: 138582-337-R-J1-PDC spheroids with HUVEC/MSC, viability
# Experiment: Anticancer human tumor 138582-337-R-J1-PDC patient-derived Merkel cell tumor cell line growth inhibition [IpAb]
# Details: for pIC50: curve of first compound; for viability, T/C: stronger effect = lower value
# In short: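 Spheroids of 60% malignant cells, 25% HUVEC and 15% MSC were exposed to targeted agents combined with ipatasertib or abemaciclib. Doses started at or near clinical Cmax (10 microM when unknown) and fell in half-log steps.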
# [1] = second compound 0.01 µM, first compound 0.0316 µM
# [2] = second compound 0.01 µM, first compound 0.1 µM
# [3] = second compound 0.01 µM, first compound 0.316 µM
# [4] = second compound 0.01 µM, first compound 1 µM
# [5] = second compound 0.01 µM, first compound 3.16 µM
# [6] = second compound 0.01 µM, first compound 10 µM
# [7] = second compound 0.0316 µM, first compound 0.0316 µM
# [8] = second compound 0.0316 µM, first compound 0.1 µM
# [9] = second compound 0.0316 µM, first compound 0.316 µM
# [10] = second compound 0.0316 µM, first compound 1 µM
# [11] = second compound 0.0316 µM, first compound 3.16 µM
# [12] = second compound 0.0316 µM, first compound 10 µM
# [13] = second compound 0.1 µM, first compound 0.0316 µM
# [14] = second compound 0.1 µM, first compound 0.1 µM
# [15] = second compound 0.1 µM, first compound 0.316 µM
# [16] = second compound 0.1 µM, first compound 1 µM
# [17] = second compound 0.1 µM, first compound 3.16 µM
# [18] = second compound 0.1 µM, first compound 10 µM
# [19] = second compound 0.316 µM, first compound 0.0316 µM
# [20] = second compound 0.316 µM, first compound 0.1 µM
# [21] = second compound 0.316 µM, first compound 0.316 µM
# [22] = second compound 0.316 µM, first compound 1 µM
# [23] = second compound 0.316 µM, first compound 3.16 µM
# [24] = second compound 0.316 µM, first compound 10 µM
# [25] = second compound 1 µM, first compound 0.0316 µM
# [26] = second compound 1 µM, first compound 0.1 µM
# [27] = second compound 1 µM, first compound 0.316 µM
# [28] = second compound 1 µM, first compound 1 µM
# [29] = second compound 1 µM, first compound 3.16 µM
# [30] = second compound 1 µM, first compound 10 µM
# 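Further: spheroids exposed to compounds for seven days.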
# 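Wherever viability, T/C is given: 100% = DMSO vehicle control viability.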
structure (smiles),measurement,setting,value
C=CCn1c(=O)c2cnc(Nc3ccc(N4CCN(C)CC4)cc3)nc2n1-c1cccc(C(C)(C)O)n1 + CCN1CCN(Cc2ccc(Nc3ncc(F)c(-c4cc(F)c5nc(C)n(C(C)C)c5c4)n3)nc2)CC1,pIC50,second compound 0.01 µM,< 5.00
same,pIC50,second compound 0.0316 µM,< 5.00
same,pIC50,second compound 0.1 µM,< 5.00
same,pIC50,second compound 0.316 µM,< 5.00
same,pIC50,second compound 1 µM,< 5.00
same,"viability, T/C",[1],105%
same,"viability, T/C",[2],95.3%
same,"viability, T/C",[3],100%
same,"viability, T/C",[4],90.4%
same,"viability, T/C",[5],117%
same,"viability, T/C",[6],141%
same,"viability, T/C",[7],106%
same,"viability, T/C",[8],99.5%
same,"viability, T/C",[9],90.9%
same,"viability, T/C",[10],99.1%
same,"viability, T/C",[11],101%
same,"viability, T/C",[12],133%
same,"viability, T/C",[13],91.4%
same,"viability, T/C",[14],98.7%
same,"viability, T/C",[15],91.7%
same,"viability, T/C",[16],90.3%
same,"viability, T/C",[17],116%
same,"viability, T/C",[18],141%
same,"viability, T/C",[19],86.4%
same,"viability, T/C",[20],96.2%
same,"viability, T/C",[21],87.6%
same,"viability, T/C",[22],94.1%
same,"viability, T/C",[23],116%
same,"viability, T/C",[24],144%
same,"viability, T/C",[25],102%
same,"viability, T/C",[26],109%
same,"viability, T/C",[27],101%
same,"viability, T/C",[28],105%
same,"viability, T/C",[29],114%
same,"viability, T/C",[30],134%
CC(C)n1nc(-c2ccc3oc(N)nc3c2)c2c(N)ncnc21 + CCN1CCN(Cc2ccc(Nc3ncc(F)c(-c4cc(F)c5nc(C)n(C(C)C)c5c4)n3)nc2)CC1,pIC50,second compound 0.01 µM,7.22
same,pIC50,second compound 0.0316 µM,7.57
same,pIC50,second compound 0.1 µM,7.28
same,pIC50,second compound 0.316 µM,< 7.00
same,pIC50,second compound 1 µM,7.16
same,"viability, T/C","second compound 0.01 µM, first compound 0.000316 µM",102%
same,"viability, T/C","second compound 0.01 µM, first compound 0.001 µM",88%
same,"viability, T/C","second compound 0.01 µM, first compound 0.00316 µM",73.4%
same,"viability, T/C","second compound 0.01 µM, first compound 0.01 µM",76.5%
same,"viability, T/C",[1],58.2%
same,"viability, T/C",[2],42.2%
same,"viability, T/C","second compound 0.0316 µM, first compound 0.000316 µM",88%
same,"viability, T/C","second compound 0.0316 µM, first compound 0.001 µM",74.5%
same,"viability, T/C","second compound 0.0316 µM, first compound 0.00316 µM",90.8%
same,"viability, T/C","second compound 0.0316 µM, first compound 0.01 µM",71%
same,"viability, T/C",[7],47.5%
same,"viability, T/C",[8],38.7%
same,"viability, T/C","second compound 0.1 µM, first compound 0.000316 µM",93.6%
same,"viability, T/C","second compound 0.1 µM, first compound 0.001 µM",88.4%
same,"viability, T/C","second compound 0.1 µM, first compound 0.00316 µM",78.8%
same,"viability, T/C","second compound 0.1 µM, first compound 0.01 µM",68.1%
same,"viability, T/C",[13],55.1%
same,"viability, T/C",[14],43.6%
same,"viability, T/C","second compound 0.316 µM, first compound 0.000316 µM",96.5%
same,"viability, T/C","second compound 0.316 µM, first compound 0.001 µM",96.6%
same,"viability, T/C","second compound 0.316 µM, first compound 0.00316 µM",80%
same,"viability, T/C","second compound 0.316 µM, first compound 0.01 µM",56.5%
same,"viability, T/C",[19],53.2%
same,"viability, T/C",[20],50.2%
same,"viability, T/C","second compound 1 µM, first compound 0.000316 µM",88.8%
same,"viability, T/C","second compound 1 µM, first compound 0.001 µM",93.5%
same,"viability, T/C","second compound 1 µM, first compound 0.00316 µM",82.6%
same,"viability, T/C","second compound 1 µM, first compound 0.01 µM",61.3%
same,"viability, T/C",[25],52.1%
same,"viability, T/C",[26],48.6%
CC1(C)CCC(CN2CCN(c3ccc(C(=O)NS(=O)(=O)c4ccc(NCC5CCOCC5)c([N+](=O)[O-])c4)c(Oc4cnc5[nH]ccc5c4)c3)CC2)=C(c2ccc(Cl)cc2)C1 + CCN1CCN(Cc2ccc(Nc3ncc(F)c(-c4cc(F)c5nc(C)n(C(C)C)c5c4)n3)nc2)CC1,pIC50,second compound 0.01 µM,< 5.00
same,pIC50,second compound 0.0316 µM,< 5.00
same,pIC50,second compound 0.1 µM,< 5.00
same,pIC50,second compound 0.316 µM,< 5.00
same,pIC50,second compound 1 µM,< 5.00
same,"viability, T/C",[1],90.6%
same,"viability, T/C",[2],83.3%
same,"viability, T/C",[3],79.3%
same,"viability, T/C",[4],83.7%
same,"viability, T/C",[5],75.1%
same,"viability, T/C",[6],83.2%
same,"viability, T/C",[7],93.3%
same,"viability, T/C",[8],86.7%
same,"viability, T/C",[9],86.4%
same,"viability, T/C",[10],78.5%
same,"viability, T/C",[11],83.3%
same,"viability, T/C",[12],82.9%
same,"viability, T/C",[13],86.5%
same,"viability, T/C",[14],79%
same,"viability, T/C",[15],85%
same,"viability, T/C",[16],80%
same,"viability, T/C",[17],86.4%
same,"viability, T/C",[18],89.5%
same,"viability, T/C",[19],85%
same,"viability, T/C",[20],90.7%
same,"viability, T/C",[21],81.7%
same,"viability, T/C",[22],86.8%
same,"viability, T/C",[23],90.8%
same,"viability, T/C",[24],106%
same,"viability, T/C",[25],88.4%
same,"viability, T/C",[26],86.3%
same,"viability, T/C",[27],75.1%
same,"viability, T/C",[28],81%
same,"viability, T/C",[29],83.7%
same,"viability, T/C",[30],109%
CCCS(=O)(=O)Nc1ccc(F)c(C(=O)c2c[nH]c3ncc(-c4ccc(Cl)cc4)cc23)c1F + CCN1CCN(Cc2ccc(Nc3ncc(F)c(-c4cc(F)c5nc(C)n(C(C)C)c5c4)n3)nc2)CC1,pIC50,second compound 0.01 µM,< 5.00
same,pIC50,second compound 0.0316 µM,< 5.00
same,pIC50,second compound 0.1 µM,5.13
same,pIC50,second compound 0.316 µM,< 5.00
same,pIC50,second compound 1 µM,< 5.00
same,"viability, T/C",[1],99.8%
same,"viability, T/C",[2],103%
same,"viability, T/C",[3],95.9%
same,"viability, T/C",[4],98.8%
same,"viability, T/C",[5],112%
same,"viability, T/C",[6],81.9%
same,"viability, T/C",[7],97.9%
same,"viability, T/C",[8],96.8%
same,"viability, T/C",[9],96.8%
same,"viability, T/C",[10],97.2%
same,"viability, T/C",[11],97.8%
same,"viability, T/C",[12],74.8%
same,"viability, T/C",[13],93.2%
same,"viability, T/C",[14],87%
same,"viability, T/C",[15],93.5%
same,"viability, T/C",[16],101%
same,"viability, T/C",[17],93.7%
same,"viability, T/C",[18],35.4%
same,"viability, T/C",[19],105%
same,"viability, T/C",[20],95%
same,"viability, T/C",[21],106%
same,"viability, T/C",[22],90.6%
same,"viability, T/C",[23],103%
same,"viability, T/C",[24],78.2%
same,"viability, T/C",[25],99.4%
same,"viability, T/C",[26],93.8%
same,"viability, T/C",[27],89.1%
same,"viability, T/C",[28],86.3%
same,"viability, T/C",[29],94.1%
same,"viability, T/C",[30],61.1%
Cn1cnc2c(F)c(Nc3ccc(Br)cc3Cl)c(C(=O)NOCCO)cc21 + CCN1CCN(Cc2ccc(Nc3ncc(F)c(-c4cc(F)c5nc(C)n(C(C)C)c5c4)n3)nc2)CC1,pIC50,second compound 0.01 µM,< 5.52
same,pIC50,second compound 0.0316 µM,< 5.52
same,pIC50,second compound 0.1 µM,< 5.52
same,pIC50,second compound 0.316 µM,< 5.52
same,pIC50,second compound 1 µM,5.73
same,"viability, T/C","second compound 0.01 µM, first compound 0.00949 µM",102%
same,"viability, T/C","second compound 0.01 µM, first compound 0.03 µM",94.5%
same,"viability, T/C","second compound 0.01 µM, first compound 0.0949 µM",75.3%
same,"viability, T/C","second compound 0.01 µM, first compound 0.3 µM",81.2%
same,"viability, T/C","second compound 0.01 µM, first compound 0.949 µM",94%
same,"viability, T/C","second compound 0.01 µM, first compound 3 µM",93.1%
same,"viability, T/C","second compound 0.0316 µM, first compound 0.00949 µM",94.8%
same,"viability, T/C","second compound 0.0316 µM, first compound 0.03 µM",91%
same,"viability, T/C","second compound 0.0316 µM, first compound 0.0949 µM",67.1%
same,"viability, T/C","second compound 0.0316 µM, first compound 0.3 µM",79.6%
same,"viability, T/C","second compound 0.0316 µM, first compound 0.949 µM",86.8%
same,"viability, T/C","second compound 0.0316 µM, first compound 3 µM",88.3%
same,"viability, T/C","second compound 0.1 µM, first compound 0.00949 µM",102%
same,"viability, T/C","second compound 0.1 µM, first compound 0.03 µM",88.2%
same,"viability, T/C","second compound 0.1 µM, first compound 0.0949 µM",78.3%
same,"viability, T/C","second compound 0.1 µM, first compound 0.3 µM",68.7%
same,"viability, T/C","second compound 0.1 µM, first compound 0.949 µM",76.9%
same,"viability, T/C","second compound 0.1 µM, first compound 3 µM",73.1%
same,"viability, T/C","second compound 0.316 µM, first compound 0.00949 µM",88.8%
same,"viability, T/C","second compound 0.316 µM, first compound 0.03 µM",90.8%
same,"viability, T/C","second compound 0.316 µM, first compound 0.0949 µM",83%
same,"viability, T/C","second compound 0.316 µM, first compound 0.3 µM",66%
same,"viability, T/C","second compound 0.316 µM, first compound 0.949 µM",72.9%
same,"viability, T/C","second compound 0.316 µM, first compound 3 µM",56.3%
same,"viability, T/C","second compound 1 µM, first compound 0.00949 µM",96.1%
same,"viability, T/C","second compound 1 µM, first compound 0.03 µM",90.2%
same,"viability, T/C","second compound 1 µM, first compound 0.0949 µM",78%
same,"viability, T/C","second compound 1 µM, first compound 0.3 µM",74.5%
same,"viability, T/C","second compound 1 µM, first compound 0.949 µM",73.1%
same,"viability, T/C","second compound 1 µM, first compound 3 µM",37.1%
